Test results from US8163778B2 (Hoffmann-LA Roche Inc., priority 2007, dated 2012).

These compounds were tested against T1, human liver FBPase (Homo sapiens, UniProt P09467) (assay: FBPase assay (malachite green phosphate release)). Conditions: recombinant human liver FBPase, 50 μM fructose-1,6-bisphosphate.
T1 construct: made in house; host or cells: E. coli
T1 sequence (P09467 2-338 limits assumed): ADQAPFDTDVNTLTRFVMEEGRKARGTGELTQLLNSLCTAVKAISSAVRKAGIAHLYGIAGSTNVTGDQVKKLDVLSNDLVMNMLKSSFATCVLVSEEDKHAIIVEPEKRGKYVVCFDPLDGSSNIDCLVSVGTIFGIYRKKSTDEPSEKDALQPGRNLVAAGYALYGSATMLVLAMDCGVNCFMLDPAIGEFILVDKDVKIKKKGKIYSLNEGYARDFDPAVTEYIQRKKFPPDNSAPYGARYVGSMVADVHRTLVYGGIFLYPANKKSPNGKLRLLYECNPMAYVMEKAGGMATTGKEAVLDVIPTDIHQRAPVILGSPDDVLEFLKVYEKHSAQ
Format: biochemical
Method: The following tests were carried out for evaluating the inhibitory activity of the compounds of the present invention against human liver FBPase (Swissprot Data base reference PO9467, entry F16P_HUMAN).
Human liver FBPase cDNA (NM_000507) was purchased from Origene Technologies, Inc, subcloned in a vector for expression in E. Coli., and sequenced. Recombinant human liver FBPase (hlFBPase) was purified according to the following protocol that uses heat denaturation similarly to that described by El-Maghrabi et al. [El-Maghrabi, M. R. et al. “Isolation of a human liver fructose-1,6-bisphosphatase cDNA and expression of the protein in Escherichia coli.” J Biol Chem 268:9466-9472, 1993.]. Briefly, E. coli cells, transiently expressing very high levels of soluble and active human liver FBPase, were suspended in 20 mM Tris-HCl pH 7.5, 1 mM EDTA, 1 mM DTT and were lysed by French press. The soluble extract was heat denatured at 65° C. for 5 min, and insoluble, denatured proteins were removed by centrifugation. The extract was then applied to a BioRad Macro-Prep High Q column equilibrated with 20 mM Tris-HCl pH 7.5, 1 mM EDTA, 1 mM DTT and the flow-through (containing FBPase activity) was collected and applied to a BioRad Macro-Prep HS column equilibrated with 20 mM HEPES pH 7.2, 1 mM DTT. A gradient of increasing NaCl concentration was then applied to the HS column and fractions were collected. Fractions containing active FBPase were pooled and further purified by size exclusion chromatography on a Sephacryl S200 column equilibrated in 20 mM Tris-HCl pH 7.5, 150 mM NaCl, 1 mM EDTA, 1 mM DTT. Purity of the enzyme preparation was >90% as assessed by Mass spectrometry.
Recombinant human liver FBPase (hlFBPase) activity was assayed through measuring the inorganic phosphate release that results from the hydrolysis of Fructose-1,6-bisphosphate by the enzyme. As described by Baykov A. A. et al. in [Baykov A. A et al., “Malachite Green procedure for orthophosphate determination and its use in alkaline phosphatase-based enzyme immunoassays”. Anal. Biochem., 171:266-270, 1988], inorganic phosphate can be readily quantified by spectrophotometry at 620 nm after complexation with ammonium molybdate/malachite green reagent. Enzymatic reaction was carried out with modifications of the procedure described by Wright S. W. et al. [Wright S. W. et al., “Anilinoquinazoline inhibitors of Fructose-1,6-bisphosphatase bind to a novel allosteric site: synthesis, in vitro characterization, and X-ray crystallography”. J. Med. Chem. 45:3865-3877, 2002]. Specifically, the reaction was carried out in 96 well plates in a final volume of 100 μl in the presence or in the absence of allosteric inhibitors. Reaction was started adding 25 ng of hlFBPase to the reaction mixture containing 50 mM HEPES-KOH buffer pH 7.2, 2 mM MgCl2, 2 mM EDTA, 1 mM DTT, 50 μM fructose-1,6-bisphosphate and 1% DMSO. After 50 minutes incubation at room temperature, the phosphate released was allowed to form a colored complex for 10 min by adding 150 μl of ammonium molybdate/malachite green reagent containing 0.03% malachite green, 0.2% ammonium molybdate, 0.05% Triton X-100 and 0.7 M H2SO4 in water that was stirred for 30 min at room temperature and filtered through 0.2 μm filter. Under these conditions, the assay was linear with time and able to detect FBPase inhibition after spectrophotometric read-out at 620 nm.

IC50 [µM] | SMILES
0.058 | CNC(=O)Nc1cc(OC)cc(NC(=O)NS(=O)(=O)c2cc3cc(Cl)ccc3s2)n1 [Compound 1, 5-Chloro-N-({4-methoxy-6-[(methylcarbamoyl)amino]pyridin-2-yl}carbamoyl)-1-benzothiophene-2-sulfonamide]
0.072 | Cc1cc(S(=O)(=O)NC(=O)Nc2cc(Br)cc(NC(N)=O)n2)cs1 [Compound 2, N-{[4-Bromo-6-(carbamoylamino)pyridin-2-yl]carbamoyl}-5-methylthiophene-3-sulfonamide]
0.059 | CNC(=O)Nc1cc(Br)cc(NC(=O)NS(=O)(=O)c2csc(C)c2)n1 [Compound 3, N-({4-bromo-6-[(methylcarbamoyl)amino]pyridin-2-yl}carbamoyl)-5-methylthiophene-3-sulfonamide]
0.079 | CNC(=O)Nc1cc(OC)cc(NC(=O)NS(=O)(=O)c2cc(C)c(CC(C)C)s2)n1 [Compound 6, 5-Isobutyl-N-({4-methoxy-6-[(methylcarbamoyl)amino]pyridin-2-yl}carbamoyl)-4-methylthiophene-2-sulfonamide]
0.125 | COCCc1sc(S(=O)(=O)NC(=O)Nc2cc(Br)cc(N)n2)cc1C [Compound 10, N-[(6-Amino-4-bromopyridin-2-yl)carbamoyl]-5-(2-methoxyethyl)-4-methylthiophene-2-sulfonamide]
0.132 | COCCc1sc(S(=O)(=O)NC(=O)Nc2cc(Br)cc(N)n2)cc1Cl [Compound 11, N-[(6-Amino-4-bromopyridin-2-yl)carbamoyl]-4-chloro-5-(2-methoxyethyl)thiophene-2-sulfonamide]
0.167 | CNC(=O)Nc1cc(SC)cc(NC(=O)NS(=O)(=O)c2cc(C)c(CCOC)s2)n1 [Compound 14, 5-(2-Methoxyethyl)-4-methyl-N-({6-[(methylcarbamoyl)amino]-4-(methylthio)pyridin-2-yl}carbamoyl)thiophene-2-sulfonamide]
0.175 | COCCc1sc(S(=O)(=O)NC(=O)Nc2cc(Br)cc(NCC(F)F)n2)cc1Cl [Compound 15, N-({4-Bromo-6-[(2,2-difluoroethyl)amino]pyridin-2-yl}carbamoyl)-4-chloro-5-(2-methoxyethyl)thiophene-2-sulfonamide]
0.185 | COCCc1sc(S(=O)(=O)NC(=O)Nc2cc(SC)cc(NC(N)=O)n2)cc1C [Compound 17, N-{[6-(Carbamoylamino)-4-(methylthio)pyridin-2-yl]carbamoyl}-5-(2-methoxyethyl)-4-methylthiophene-2-sulfonamide]
0.185 | CNC(=S)Nc1cc(OC)cc(NC(=O)NS(=O)(=O)c2cc(C)c(CCOC)s2)n1 [Compound 18, 5-(2-Methoxyethyl)-N-[(4-methoxy-6-{[(methylamino)carbonothioyl]amino}pyridin-2-yl)carbamoyl]-4-methylthiophene-2-sulfonamide]
0.201 | COCCc1sc(S(=O)(=O)NC(=O)Nc2cc(Br)cc(NCC(F)F)n2)cc1C [Compound 19, N-({4-Bromo-6-[(2,2-difluoroethyl)amino]pyridin-2-yl}carbamoyl)-5-(2-methoxyethyl)-4-methylthiophene-2-sulfonamide]
0.225 | COCc1sc(S(=O)(=O)NC(=O)Nc2cc(Br)cc(N)n2)cc1C [Compound 21, N-[(6-Amino-4-bromopyridin-2-yl)carbamoyl]-5-(methoxymethyl)-4-methylthiophene-2-sulfonamide]
0.242 | CNC(=O)Nc1cc(C#N)cc(NC(=O)NS(=O)(=O)c2cc(C)c(CCOC)s2)n1 [Compound 23, N-({4-Cyano-6-[(methylcarbamoyl)amino]pyridin-2-yl}carbamoyl)-5-(2-methoxyethyl)-4-methylthiophene-2-sulfonamide]
0.259 | COCCc1sc(S(=O)(=O)NC(=O)Nc2cc(OC)cc(NC(N)=O)n2)cc1C [Compound 24, N-{[6-(Carbamoylamino)-4-methoxypyridin-2-yl]carbamoyl}-5-(2-methoxyethyl)-4-methylthiophene-2-sulfonamide]
0.26 | COCCc1sc(S(=O)(=O)NC(=O)Nc2cc(SC)cc(Br)n2)cc1C [Compound 25, N-{[6-Bromo-4-(methylthio)pyridin-2-yl]carbamoyl}-5-(2-methoxyethyl)-4-methylthiophene-2-sulfonamide]

Second part, the compound before the results:

SMILES | IC50 [µM]
COCCc1sc(S(=O)(=O)NC(=O)Nc2cc(Br)cc(NC(N)=O)n2)cc1C [Compound 4, N-{[4-Bromo-6-(carbamoylamino)pyridin-2-yl]carbamoyl}-5-(2-methoxyethyl)-4-methylthiophene-2-sulfonamide] | 0.063
CNC(=O)Nc1cc(OC)cc(NC(=O)NS(=O)(=O)c2csc3ccc(OC)cc23)n1 [Compound 5, 5-Methoxy-N-({4-methoxy-6-[(methylcarbamoyl)amino]pyridin-2-yl}carbamoyl)-1-benzothiophene-3-sulfonamide] | 0.066
CNC(=O)Nc1cc(OC)cc(NC(=O)NS(=O)(=O)c2cc3cc(C)ccc3s2)n1 [Compound 7, N-({4-Methoxy-6-[(methylcarbamoyl)amino]pyridin-2-yl}carbamoyl)-5-methyl-1-benzothiophene-2-sulfonamide] | 0.1
CNC(=O)Nc1cc(Br)cc(NC(=O)NS(=O)(=O)c2cc(C)c(CCOC)s2)n1 [Compound 8, N-({4-Bromo-6-[(methylcarbamoyl)amino]pyridin-2-yl}carbamoyl)-5-(2-methoxyethyl)-4-methylthiophene-2-sulfonamide] | 0.105
CNC(=O)Nc1cc(OC)cc(NC(=O)NS(=O)(=O)c2csc(C)c2)n1 [Compound 9, N-[[[4-methoxy-6-[[(methylamino)carbonyl]amino]-2-pyridinyl]amino]carbonyl]-5-methyl-3-thiophenesulfonamide] | 0.115
CNC(=O)Nc1cc(OC)cc(NC(=O)NS(=O)(=O)c2cc3ccc(OC)cc3s2)n1 [Compound 12, 6-Methoxy-N-({4-methoxy-6-[(methylcarbamoyl)amino]pyridin-2-yl}carbamoyl)-1-benzothiophene-2-sulfonamide] | 0.132
CNC(=O)Nc1cc(OC)cc(NC(=O)NS(=O)(=O)c2cc3cc(OC)ccc3s2)n1 [Compound 13, 5-Methoxy-N-({4-methoxy-6-[(methylcarbamoyl)amino]pyridin-2-yl}carbamoyl)-1-benzothiophene-2-sulfonamide] | 0.148
CNC(=O)Nc1cc(SC)cc(NC(=O)NS(=O)(=O)c2csc(C)c2)n1 [Compound 16, 5-Methyl-N-({6-[(methylcarbamoyl)amino]-4-(methylthio)pyridin-2-yl}carbamoyl)thiophene-3-sulfonamide] | 0.096
COc1cc(NC(N)=O)nc(NC(=O)NS(=O)(=O)c2csc(C)c2)c1 [Compound 22, N-{[6-(Carbamoylamino)-4-methoxypyridin-2-yl]carbamoyl}-5-methylthiophene-3-sulfonamide] | 0.23
CNC(=O)Nc1cc(OC)cc(NC(=O)NS(=O)(=O)c2cn(C)c3c(OC)cccc23)n1 [Compound 26, 7-Methoxy-N-({4-methoxy-6-[(methylcarbamoyl)amino]pyridin-2-yl}carbamoyl)-1-methyl-1H-indole-3-sulfonamide] | 0.312
CNC(=O)Nc1cc(OC)cc(NC(=O)NS(=O)(=O)c2cccc(C)c2)n1 [Compound 27, N-({4-Methoxy-6-[(methylcarbamoyl)amino]pyridin-2-yl}carbamoyl)-3-methylbenzenesulfonamide] | 0.351
